Where a name gives a salt, the structure may show the parent alone. Where no end group is shown, it is not given here. [ ]: non-standard residue; d: D form. Phe(4-NH2) = Nc1ccc(C[C@H](N)C(=O)O)cc1; Sta = CC(C)C[C@H](N)[C@@H](O)CC(=O)O; Hyp = O=C(O)[C@@H]1C[C@@H](O)CN1
system: PAR-2; experiment: Inhibition of PAR-2 activating peptide (AP2) calcium signaling in cells pretreated with antagonist; format: cell-based, human; parameters: key to PAR-2 AP2 Signaling Treated/Control (T/C) / PAR-2 AP2 Signaling Treated/Control: AUC of calcium mobilization, treated ÷ control wells; details: mimetic antagonists; AUC of calcium mobilization treated/control; initially screened at 1 mM compound
Method: In order to assess the potential of peptides and molecules selected above to block PAR-2 signaling, cells were pretreated with potential antagonist peptides for a predetermined amount of time and were subsequently treated with various GPCR agonists. Confluent Lewis lung carcinoma (LLC) cells were loaded for 30-60 minutes with the fluorescent dye Fluo-4. Final concentration 4 uM Fluo-4, 0.02% pluronic acid in physiological buffer. Cells were then washed with assay buffer, (HBSS containing 1 mM CaCl2, 1 mM MgSO4, and 2.5 mM probenecid). Cells were stimulated with various doses of PAR-2 activating peptide, PAR-1 activating peptide or ATP. Fluorescence was monitored using a Wallac 1470 fluorescent plate reader. (See Al-ani et. al Journal of Pharmacology and Experimental Therapeutics 290:2, 753-760). Additional compound screening was performed using U87-MG human glioma cells. In this assay cells were labeled with FLIPR Calcium 3 dye (Component A), which was dissolved in 10 mls of Assay Buffer without Probenecid. Loading buffer was prepared by diluting Component A with an additional 90 mls of Assay Buffer without Probenecid, giving a total volume of a 100 ml. For plate loading, 11 mls of FLIPR Calcium 3 dye (Component A) is placed into a 15 ml conical tube+110 μl of 250 mM Probenecid, at a final in-well working volume of 2.5 mM. Finally, 50 μl of Calcium 3 dye was added wells containing 100 μl media, and incubated 1 hr, 37° C., 5% CO2. Calcium signaling was then measured using a Flexstation II (Molecular Devices) following manufacturer's instructions.
Potential antagonist compounds were initially screened at 1 mM compound concentration. Those compounds with activity were then subjected to additional confirmatory testing. Activity is reported as treated/controlled (T/C) where the area under the curve (AUC) of calcium mobilization plots in treated wells is divided by the AUC of calcium mobilization plots in control wells to generate a measure of inhibition.

First: Cl.N[C@H]1CC[C@@H](C(=O)N2CCN(C(=O)CC3CCCCC3)CC2)CC1 [ENMD-1781, N^1-2-cyclohexylethanoyl-N-4-cis-4-amino-cyclohexane-carbonyl piperazine hydrochloride]
Second: Cl.O=C(CC1CCCCC1)N1CCN(C(=O)C2CCCNC2)CC1 (stereo not shown) [ENMD-1773, N1-2-cyclohexylethanoyl-N-4-piperidine-3-carbonyl-piperazine hydrochloride]
The “PAR-2 AP2 Signaling Treated/Control” value of the first is lower: 0.71 for the first, 0.85 for the second.

First: NCCCCCC(=O)N1CCOC(C(=O)NCC2CCCCC2)C1 (stereo not shown) [ENMD-1523, 4-(6-Amino-hexanoyl)-morpholine-2-carboxylic acid cyclohexylmethyl-amide]
Second: NCCCCCC(=O)N1CC(NC(=O)CC2CCCCC2)C1 [ENMD-1514, 2-cyclohexylacetamid-N-(6-amino-1-hexanoylazetidin-3-yl)]
The “PAR-2 AP2 Signaling Treated/Control” value of the first is higher: 0.54 for the first, 0.53 for the second.

First: CC(C)CCNC(=O)C1CCS(=O)(=O)N1CCCCCCN (stereo not shown) [ENMD-1546, N-(6-aminohexyl)isothiazolidine-1,1-dioxide-3-carboxylic acid isoamylamide]
Second: NCCCCCCN1C(C(=O)NCCC2CCCCC2)CCS1(=O)=O (stereo not shown) [ENMD-1545, N-(6-aminohexyl)isothiazolidine-1,1-dioxide-3-carboxylic acid (2-cyclohexyl)ethylamide]
The “PAR-2 AP2 Signaling Treated/Control” value of the first is higher: 0.97 for the first, 0.35 for the second.

Compared with `NCCCCCC(=O)Nc1cc(C(=O)NCC2CCCCC2)n[nH]1` [ENMD-1534, 5-(6-amino-hexanoylamino)-1H-pyrazole-3-carboxylic acid cyclohexylmethyl-amide], `CC(C)CNC(=O)c1cc(NC(=O)CCCCCN)[nH]n1` [ENMD-1533, 5-(6-Amino-hexanoylamino)-1H-pyrazole-3-carboxylic acid isobutyl-amide] is higher in “PAR-2 AP2 Signaling Treated/Control” value: 0.44 for the first, 0.68 for the second.

First: CC(C)COc1ccc(C(=O)NCCCN)cc1 [ENMD-1408, N-(3-aminopropyl)-4-isobutoxy-benzamide]
Second: NCCCCNC(=O)c1ccc(OCC2CCCCC2)cc1 [ENMD-1406, N-(4-aminobutyl)-4-(cyclohexylmethoxy)-benzamide]
The “PAR-2 AP2 Signaling Treated/Control” value of the first is higher: 0.35 for the first, 0.24 for the second.

First: CC(C)CCn1c(=O)n(CCCCCCN)c2ccccc21 [ENMD-1517, 1-(6-aminohexyl)-3-[(3-methyl)butyl]benzimidazol(2)-one]
Second: CC(C)CNC(=O)c1cccn1CCCCCCN [ENMD-1569, 1-(6-aminohexyl)-2-[N′-isobutyl]-pyrrole carboxamide]
The “PAR-2 AP2 Signaling Treated/Control” value of the first is lower: 0.52 for the first, 0.77 for the second.

First: NCCCCNC(=O)c1ccc(NCC2CCCCC2)nc1 [ENMD-1538]
Second: NCCCCCCNC(=O)c1ccc2nc(NCC3CCCCC3)[nH]c2c1 [ENMD-1526, 2-(Cyclohexylmethyl-amino)-3H-benzoimidazole-5-carboxylic acid (6-amino-hexyl)-amide]
The “PAR-2 AP2 Signaling Treated/Control” value of the first is lower: 0.48 for the first, 0.64 for the second.

First: O=C(Cc1ccncc1)N1CCN(C(=O)CC2CCCCC2)CC1 [ENMD-1079, 1-(4-(2-cyclohexylacetyl)piperazin-1-yl)-2-(pyridin-4-yl)-acetaldehyde]
Second: O=C(Cc1cnc[nH]1)N1CCN(C(=O)CC2CCCCC2)CC1 [ENMD-1071, 1-(4-(2-(1H-imidazol-4-yl)acetyl)piperazin-1-yl)-1-cyclohexyl-acetamide hydrochloride]
The “PAR-2 AP2 Signaling Treated/Control” value of the first is higher: 0.90 for the first, 0.16 for the second.

Compared with `NCCCCCNC(=O)Cc1csc(NC(=O)CC2CCCCC2)n1` [ENMD-1559, N-(5-amino-pentyl)-2-[2-(2-cyclohexyl-acetyl-amino)-thiazol-4-yl]-acetamide], `CC(C)CC(=O)Nc1nc(CC(=O)NCCCCCN)cs1` [ENMD-1549, N-{4-[(5-Amino-pentylcarbamoyl)-methyl]-thiazol-2-yl}-3-methyl-butyramide] is lower in “PAR-2 AP2 Signaling Treated/Control” value: 0.52 for the first, 0.26 for the second.

First: CCCCCC(=O)N1CCN(C(=O)CCCCCN)CC1 [ENMD-1039, N^1-hexanoyl-N^4-[6-aminohexanoyl]-piperazine]
Second: CCC(=O)N1CCN(C(=O)CCCCCN)CC1 [ENMD-1037, N′-propanoyl-N-4-[6′-aminohexanoyl]-piperazine]
The “PAR-2 AP2 Signaling Treated/Control” value of the first is higher: 1.34 for the first, 0.55 for the second.

Going from `NCCCCCCn1cccc1C(=O)NCC1CCCCC1` [ENMD-1570] to `NCCCCNC(=O)c1ccc(CCC2CCCCC2)cc1` [ENMD-1509, N-(4-aminobutyl)-4-(2-cyclohexylethyl)-benzamide], the “PAR-2 AP2 Signaling Treated/Control” value rises from 0.05 to 0.71.

Going from `CC(C)CC(=O)NC1CN(C(=O)CCCCCN)C1` [ENMD-1516, N-(6-amino-1-hexanoylazetidin3-yl)-3-methylbutanamide] to `CC(C)CC(=O)N1CC(NC(=O)CCCCCN)C1` [ENMD-1515, N-[1-(3-methylbutanoyl)azetidin-3-yl]-6-aminohexanamide], the “PAR-2 AP2 Signaling Treated/Control” value falls from 0.87 to 0.65.

Going from `Cl.NCCCOc1ccc(OCC2CCCCC2)cc1` [ENMD-1567, 3-(4-(cyclohexylmethoxy)phenoxy)propan-1-amine hydrochloride] to `NCCCCOc1ccc(OCc2ccccc2)cc1` [ENMD-1566, 4-(4-(benzyloxy)phenoxy)butan-1-amine hydrochloride], the “PAR-2 AP2 Signaling Treated/Control” value falls from 0.08 to 0.01.

First: NCCCCCCNC(=O)c1cc(CNC(=O)CC2CCCCC2)on1 [ENMD-1557, 5-[(2-Cyclohexyl-acetylamino)-methyl]-isoxazole-3-carboxylic acid (6-amino-hexyl)-amide]
Second: NCCCCCC(=O)NC1CN(C(=O)CC2CCCCC2)C1 [ENMD-1513, N-[1-(2-cyclohexylacetyl)azetidin-3-yl]-6-aminohexanamide]
The “PAR-2 AP2 Signaling Treated/Control” value of the first is lower: 0.52 for the first, 0.97 for the second.

Going from `CC(C)CC(=O)Nc1cc(C(=O)NCCCCCCN)n[nH]1` [ENMD-1550, 5-(3-methyl-butyrylamino)-1H-pyrazole-3-carboxylic acid (6-amino-hexyl)-amide] to `N=C(N)NCCCCCC(=O)N1CCN(C(=O)CC2CCCCC2)CC1` [ENMD-1072, 4-(1-cyclohexylacetyl)piperazin-1-(5′-carbamoyl-pentylguanidine)], the “PAR-2 AP2 Signaling Treated/Control” value falls from 0.63 to 0.56.

Going from `Cl.O=C(CC1CCCCC1)N1CCN(C(=O)C2CNCCO2)CC1` (stereo not shown) [ENMD-1780, N^1-2-cyclohexylethanoyl-N-4-morpholine-2-carbonyl-piperazine hydrochloride] to `NCCC1CCN(c2cnc(C(=O)NCCC3CCCCC3)cn2)CC1` [ENMD-1778, cyclohexylethyl-6-(4-aminoethylpiperdine)-2-pyrazine amide], the “PAR-2 AP2 Signaling Treated/Control” value falls from 0.86 to 0.05.

`CC(C)CC(=O)N1CCN(C(=O)Cc2ccc(N)cc2)CC1` [ENMD-1065, N^1-3-methylbutyryl-N^4-[2-(4-aminophenyl)-ethanoyl]-piperazine] was tested, and the “PAR-2 AP2 Signaling Treated/Control” value was 0.34.

same assay, conditions: peptides; AUC of calcium mobilization treated/control; initially screened at 1 mM compound

Compared with “LIG-(4-aminoF) (LIG[Phe(4-NH2)]) [ENMD-1030]”, LIGE [ENMD-1046] is higher in “PAR-2 AP2 Signaling Treated/Control (T/C)” value: 0.05 for the first, 0.34 for the second.

Compared with L-Sta-K (Leu-[Sta]-Lys) [ENMD-1056], L-HyP-K (Leu-[Hyp]-Lys) [ENMD-1060] is lower in “PAR-2 AP2 Signaling Treated/Control (T/C)” value: 1.35 for the first, 1.29 for the second.

Compared with L-HyP-GK (L[Hyp]GK) [ENMD-1061], dI-dG-dK [ENMD-1383] is lower in “PAR-2 AP2 Signaling Treated/Control (T/C)” value: 1.16 for the first, 0.48 for the second.

LIGH [ENMD-1054] was tested, and the “PAR-2 AP2 Signaling Treated/Control (T/C)” value was 0.83.

Source: patent publication US20060063930A1, “Compositions and methods comprising proteinase activated receptor antagonists” (priority 2004, published 2006)
